Data from patent publication US5175156A, “Chromic picolinate treatment” (Nutrition 21, priority 1991, dated 1992).
“And” between values parts separate entries of the source, which are not always exact repeats. Equal entries are not always repeated. “Also recorded” adds a separate entry of the source.

Legend:
[1] = Absorption of orally administered chromium-51 compounds, radioactivity in liver and kidney (Example 1); details: rat; for Total radioactivity in tissue, Kidney / Total radioactivity in tissue, Liver: 150 ng oral gavage, 120 h after administration
Experimental: In this example, chromic tripicolinate was first synthesized by combining 3.66 grams of picolinic acid (Sigma Chemical, St. Louis) and 2.66 grams of chromic chloride with 20 ml. of deionized water. The solution was heated with stirring for 15 minutes after which the contents were placed in a refrigerator overnight to obtain maximum crystalization. The supernatant was removed by vacuum filtration followed by recrystalization from hot deionized water. To synthesize chromic (chromium-51) tripicolinate, 0.12 micromoles recrystalized picolinic acid was added to a solution containing 0.03 micromoles of chromic (Cr^51) chloride in 5.0 ml. acetate buffer, pH 5.0. The solution was stirred for 30 minutes at 90° C., cooled and subsequently reheated for 30 minutes at 90° C. The solution was cooled to room temperature before use.
Each of four male Sprague-Dawley rats weighing 125-150g was given an oral dose of 150 ng. chromic (Cr-51) picolinate in 0.51 ml. by gavage tube. An identical quantity of Cr-5I as chloride in acetate buffer was also administered to each of four rats. […] One hundred twenty hours after oral administration of the two forms of labeled chromium, each of the rats was killed by exsanguination after which the liver and kidneys were removed and cut into 1.0 g portions for assay of radioactivity content.

[2] = in vivo; cited from earlier work
[3] = Oral toxicity experiment in rats (Example 2); type: in vivo
Experimental: In a toxicity experiment, rats weighing a mean of 223.4 g were given an oral suspension of 100 mg, 300 mg and 500 mg chromic tripicolinate in water. […] The tests were stopped at 500 mg because it was impossible to obtain a workable suspension beyond this level.

[4] = Anabolic effect in male university students in weight training (Example 5); type: in vivo, human
Experimental: This study was performed to evaluate the anabolic effect of chromic tripicolinate in male subjects.
At the start of the study, 10 male university students enrolled in weight training classes, were given, at random, a 40-day supply of capsules that contained either placebo (5 mg of calcium phosphate) or chromic tripicolinate ([…] chromic tripicolinate admixed with 5 mg of calcium phosphate, which provided 200 ug of chromium). The identity of the capsules was known only to an individual who was not in any way involved in the study. During the 40-day period, each of the volunteers followed a prescribed weight lifting protocol for a total of 3 hours per week. Measurements taken at the beginning and again at the end of the study included various skin-fold thicknesses, biceps and calf circumferences, and body weight. Percent body fat was derived from the sum of the triceps, subscapular and chest skinfolds. Lean body mass was derived from anthropometrically-determined percent body fat: weight-(weight×percent body fat).

[5] = tested on: adult onset diabetes mellitus (AODM)
Experimental: Eleven subjects with adult onset diabetes mellitus (AODM), participated in this study. These subjects had hemoglobin A1 C concentrations greater than 9.0 and were on stable doses of oral hypoglycemic agents for four months. […] The dose of oral agent remained constant during the study.
The following parameters: Cholesterol, HDL, LDL, and hemoglobin A1 C were tested initially, and at the end of each half of the study. Fasting blood sugars, blood pressure, weight and temperature were tested initially; at three weeks; and at the end of the study.
Glycosylated hemoglobin was measured by a modification of the method of Clegg and Schroeder (Clegg, et al. J. Lab Clin. Med., 102:577-589, (1983)), using a Fast Hemoglobin Minicolumn, available from Isolab; Akron, Ohio, U.S.A.). Normal values are 5.5 to 7.5%. Fasting glucoses were measured by finger stick glucometer readings (using an Accucheck II from Boehringer Mannheim, Indianapolis, Ind., U.S.A.).
Split samples of cholesterol were sent to laboratories for analysis. Split samples of apolipoproteins were analyzed on a Beckman Array protein analyzer that was standardized by the Center for Disease Control, Atlanta, Georgia, U.S.A., using Lipid Research Clinic Guidelines (see J. A. M. A. 251: 351, (1984) and J. A. M. A. 251: 365, (1984)).
For EXAMPLE 4, summary statistics are expressed as the mean ± standard error of the mean (SEM). Split-plot analyses of variance were used to assess treatment effects on the various parameters in the cross-over studies of variance (see Hills, et al., Br. J. Clin. Pharmacol. 8:7-20, (1979)). Correlation analysis was performed with a linear regression curve-fitting program.

[6] = tested on: Glucose Tolerance Factor activity; test: Glucose Tolerance Factor activity; details: no data given
[7] = in vivo
Experimental: Subjects for the study were obtained after screening a group of volunteers. Thirty-two volunteers age 25-80 with total cholesterol levels of 5.7-8.3 mmoles/l (220-320 mg/dl) were initially chosen. […] None of the subjects was using beta blockers, thiazide diuretics, steroids, chromium supplements or any investigational drugs. The volunteers were requested not to alter dietary or exercise habits during the course of the study. Informed consent was obtained and the subjects were paid a stipend for their participation.
For the double-blind, cross-over study, subjects were divided randomly into two treatment groups by a non-participant. During each half of the study participants ingested gelatin capsules that contained either chromic tripicolinate or a placebo. The chromic tripicolinate supplement contained 1.6 mg chromium tripicolinate (200 micrograms Cr^+3) mixed with 5 mg calcium phosphate. The placebo contained only 5 mg calcium phosphate. The study consisted of two 42-day periods with a 14-day period off capsules between treatments. Compliance by subjects was monitored by capsule count.
At the beginning, after three weeks and at the end of each period, heart rate, blood pressure, weight and temperature were measured and a fasting-blood sample was drawn. Serum parameters measured included total cholesterol, LDL-cholesterol, HDL-cholesterol, triglycerides, apolipoprotein A1 and apolipoprotein B. Serum concentrations of cholesterol and triglycerides were determined with an Olympus 500 Automated Colormetric System (Olympus Instrument Co., Los Angeles, Calif., U.S.A.). HDL-cholesterol was assayed with an enzyme heparin-manganese chloride precipitation method (Albers et al., Clin Chem., 1978; 24:853-856). LDL-cholesterol was estimated by the method of Friedwald (Friedwald, Clin Chem., 1972; 18:499-502). Concentrations of apolipoprotein A1 and apolipoprotein B in serum were assayed with a nephelometric immunoassay (Naito, J. Clin. Immunol.. 1986; 9:110-120) using a Boehringer laser kit.
For statistical analysis of the measurements made in this study, the values obtained at the beginning and at the end of each 42-day period were used. Because each subject served as its own control, paired t tests were used to identify statistically significant differences between mean values of changes and differences in changes. Student's t test and p values were determiend with the program WORMSTAT™ (available from Small Business Computers, New England, Conn., U.S.A.).

[8] = tested on: insulin and insulin receptors; test: Binding to insulin and insulin receptors; details: no data given
[9] = tested on: serum lipid parameters; test: Double-blind cross-over human study, serum lipid parameters (Example 3); type: in vivo
Experimental: Chromium tripicolinate was synthesized by first dissolving 2.66 g CrCl3.6 H2 O in 25 ml warm (60° C.), deionized water. Thereafter, 3.69 g picolinic acid (Sigma Chemical, St. Louis, Mo., U.S.A.) was added and the contents were stirred with gentle heating until the solution turned purple and crystals began to form. The solution was then left standing at 4° C. overnight. The supernatant was then discarded and the crystals were airdried at room temperature.
The placebo contained only 5 mg calcium phosphate. […] Compliance by subjects was monitored by capsule count. The foregoing study protocol is illustrated in FIG. 1.

[10] = 6 weeks Cr supplementation, 11 AODM subjects, mean ± SEM
[11] = 6 weeks Cr supplementation, 11 AODM subjects, mean ± SEM, significant difference from placebo, p <0.05
[12] = 28 subjects, mean ± SD, 42 days
[13] = 28 subjects, mean ± SD, 42 days, listed as Chromic Tripicolinate
[14] = 28 subjects, mean ± SD, start of 42-day period
[15] = combined results, 42 days, p<0.001

Compound: [Cl][51Cr]([Cl])[Cl] [Chromic (Cr-51) Chloride, chromic (Cr^51) chloride, reference compound]
- Total radioactivity in tissue, Kidney [1]: 39030 CPM
- Total radioactivity in tissue, Liver [1]: 30050 CPM

Compound: O=C([O-])c1ccccn1.O=C([O-])c1ccccn1.O=C([O-])c1ccccn1.[Cr+3] [Chromic (Cr-51) Picolinate, chromic (chromium-51) tripicolinate]
- Total radioactivity in tissue, Kidney [1]: 157525 CPM
- Total radioactivity in tissue, Liver [1]: 115075 CPM

Compound: [Cl][Cr]([Cl])[Cl] [chromic chloride, reference compound]
- effect of supplementation, result in words [2]: improvements of risk factors associated with maturity-onset diabetes and cardiovascular diseases

Compound: [Cr] [chromium]
- effect of supplementation, result in words [2]: improvements in glucose tolerance, serum lipid concentrations, including high-density lipoprotein cholesterol, insulin and insulin binding

Compound: chromic tripicolinate
- human dose before any effects would be observed ([3]; 70 Kg human, extrapolated from rats): greater than 156 grams
- oral lethal dose ([3]; rats, mean 223.4 g, oral suspension in water): > 2200 mg/kg
- deaths ([3]; rats, oral 100 mg, 300 mg and 500 mg): No deaths occurred
- rate of absorption relative to chromic chloride ([1]; in vivo, po, 7200 min): about 4 times
- calculated lean body mass, increase ([4]; 40 days, 200 ug chromium, P=0.017): 1.6 kg
- calf circumference, increase ([4]; 40 days, 200 ug chromium, P=0.029): 1.15±0.67 cm
- body weight, increase ([4]; 40 days, 200 ug chromium, P=0.0325): 2.18 ± 1.34 kg
- increase in lean body mass compared with placebo group ([4]; Student's t test, P=0.0198): significantly greater
- Cholesterol [5, 10]: 211.4
- HDL [5, 10]: 52.3
- LDL [5, 10]: 139.5
- Fasting Bld Sugar [5, 11]: 162.2
- Hemoglobin A1 C [5, 11]: 10.4
- HDL, trend in words ([5]; P was not <0.05): trends were favorable
- cholesterol, trend in words ([5]; P was not <0.05): trends were favorable
- fasting glucose, change in words ([5]; diabetic subjects): significant decreases
- glycosylated hemoglobin, change in words ([5]; diabetic subjects): significant decreases
- Blood Pressure, first figure ([5]; human, in vivo): 132.9
- Blood Pressure, second figure ([5]; human, in vivo): 72.4
- Heart Rate ([5]; human, in vivo): 70.1
- Temperature ([5]; human, in vivo): 97.8 °F
- blood pressure, change in words ([5]; human, in vivo): no significant changes
- heart rate, change in words ([5]; human, in vivo): no significant changes
- temperature, change in words ([5]; human, in vivo): no significant changes
- weight, change in words ([5]; human, in vivo): no significant changes
- LDL, decrease ([5]; treatment versus placebo (FIG. 9)): 8%
- Glucose Tolerance Factor activity [6]: has Glucose Tolerance Factor activity
- blood pressure, change in words [7]: No significant changes
- heart rate, change in words [7]: No significant changes
- subjects who developed a fine rash about their forearms [7]: one
- subjects who developed mouth ulcers [7]: one
- temperature, change in words [7]: No significant changes
- binding to insulin and insulin receptors [8]: binds to insulin and insulin receptors
- Apo B, change ([9]; 28 subjects, 42 days, p = .001): -25 mg/dL
- Apo A, change ([9]; 28 subjects, 42 days, p = .003): +16 mg/dl
- apolipoprotein B, reduction ([9]; 28 subjects, 42 days, p=0.001): 16%
- LDL-cholesterol, final ([9]; 28 subjects, after 42 days): 178 mg/dL
- LDL-cholesterol, initial ([9]; 28 subjects, before 42 days): 200 mg/dL
- Apo A, final [9, 12]: 163 ± 31 mg/dL
- Apo B, final [9, 12]: 130 mg/dL
- Cholesterol Total, final [9, 12]: 256 mg/dL
- LDL, final [9, 12]: 5.1 mmol/L
- Cholesterol Total, final ([9]; 28 subjects, mean ± SD, 42 days, 200 micrograms Cr daily): 6.6 mmol/L
- Cholesterol Total, final ([9]; 28 subjects, mean ± SD, 42 days, 200 micrograms Cr daily, listed as Chromic Tripicolinate): 6.6 ± 1.0 mmol/L
- Apo B, final [9, 13]: 130 ± 45 mg/dL
- Cholesterol Total, final [9, 13]: 256 ± 41 mg/dL
- Apo A, initial [9, 14]: 147 ± 28 mg/dL
- Apo B, initial [9, 14]: 155 mg/dL
- LDL, initial [9, 14]: 5.7 mmol/L
- Apo B, initial ([9]; 28 subjects, mean ± SD, start of 42-day period, listed as Chromic Tripicolinate): 155 ± 50 mg/dL
- serum HDL-cholesterol, change in words ([9]; 28 subjects, p>0.05): increased slightly but not significantly
- LDL-cholesterol, decrease ([9]; 42 days): 10% and 10.5%
- Total cholesterol concentration, decrease ([9]; 42 days): 7%
- serum triglycerides, change in words ([9]; 42 days): No significant changes
- LDL-cholesterol, change in words [9, 15]: decreased significantly; also recorded: significant (p<0.001) reductions
- total cholesterol, change in words [9, 15]: decreased significantly; also recorded: significant (p<0.001) reductions
- apolipoprotein B, change in words ([9]; combined results, 42 days, p=0.001): significant reduction; also recorded: decreased significantly
- apolipoprotein A1, change in words ([9]; combined results, 42 days, p=0.003): significant elevation; also recorded: significantly elevated
- LDL-cholesterol, change in words ([9]; final 42 days, placebo-first group, p=0.003): decreased significantly
- total cholesterol, change in words ([9]; final 42 days, placebo-first group, p=0.009): decreased significantly
- apolipoprotein B, change in words ([9]; first 6-week period, subjects starting with chromic tripicolinate, p=0.003): significantly decreased
- total cholesterol, change in words ([9]; first 6-week period, subjects starting with chromic tripicolinate, p=0.007): significantly decreased
- LDL-cholesterol, change in words ([9]; first 6-week period, subjects starting with chromic tripicolinate, p=0.015): significantly decreased
- apolipoprotein A1, change in words ([9]; first 6-week period, subjects starting with chromic tripicolinate, p=0.047): significantly elevated
- subjects with decreased LDL-cholesterol ([9]; of 28 subjects): 20
- subjects with elevated cholesterol ([9]; of 28 subjects): 4
- subjects with lower total cholesterol ([9]; of 28 subjects): 22
- subjects with unchanged LDL-cholesterol ([9]; of 28 subjects): 3
- subjects with unchanged total cholesterol ([9]; of 28 subjects): 2
- apolipoprotein B, change in words ([9]; placebo-first group, after chromic tripicolinate, p=0.072): decreased, but not significantly
- apolipoprotein A1, change in words ([9]; placebo-first group, chromic tripicolinate period, p=0.007): increased significantly
